Laboratory results: publication PMC8793051 (ACS Omega, 2022)

Columns and labels:
[1] = tested on: OVCAR-5; experiment: NCI-60 SRB growth assay; format: cell-based, human
[2] = tested on: UACC-62; experiment: NCI-60 SRB growth assay; format: cell-based, human
[3] = tested on: MALME-3M; experiment: NCI-60 SRB growth assay; format: cell-based, human
[4] = tested on: PC-3; experiment: NCI-60 SRB growth assay; format: cell-based, human
[5] = tested on: RXF 393; experiment: NCI-60 SRB growth assay; format: cell-based, human
[6] = tested on: SF-539; experiment: NCI-60 SRB growth assay; format: cell-based, human
[7] = tested on: U251; experiment: NCI-60 SRB growth assay; format: cell-based, human
[8] = tested on: NCI-H23; experiment: NCI-60 SRB growth assay; format: cell-based, human
[9] = tested on: HCT-15; experiment: NCI-60 SRB growth assay; format: cell-based, human
[10] = tested on: A549/ATCC; experiment: NCI-60 SRB growth assay; format: cell-based, human
[11] = tested on: NCI-H226; experiment: NCI-60 SRB growth assay; format: cell-based, human
[12] = tested on: oligo-1: d(CGCGAATTCGCG)2; experiment: UV thermal denaturation; format: binding
[13] = tested on: panel of 60 human cancer cell lines; experiment: cells; settings: read-out: GI50 concentration range
[14] = tested on: BT-549; experiment: NCI-60 SRB growth assay; format: cell-based, human; settings: BT-549
[15] = tested on: M14; experiment: NCI-60 SRB growth assay; format: cell-based, human
[16] = tested on: A498; experiment: NCI-60 SRB growth assay; format: cell-based, human
[17] = tested on: HEK; experiment: MTT cytotoxicity assay; format: cell-based; settings: Homo sapiens, HEK293, 48 h
[18] = tested on: oligo-2: d(CGATGTACATCG)2; experiment: UV thermal denaturation; format: binding
[19] = tested on: HOP-62; experiment: NCI-60 SRB growth assay; format: cell-based, human; settings: HOP-62
[20] = tested on: NCI-H522; experiment: NCI-60 SRB growth assay; format: cell-based, human
[21] = tested on: LOX IMVI; experiment: NCI-60 SRB growth assay; format: cell-based, human
[22] = tested on: MDA-MB-468; experiment: NCI-60 SRB growth assay; format: cell-based, human; settings: MDA-MB-468
[23] = tested on: OVCAR-3; experiment: NCI-60 SRB growth assay; format: cell-based, human
[24] = tested on: EKVX; experiment: NCI-60 SRB growth assay; format: cell-based, human
[25] = tested on: MOLT-4; experiment: NCI-60 SRB growth assay; format: cell-based, human
[26] = tested on: HCC-2998; experiment: NCI-60 SRB growth assay; format: cell-based, human
[27] = tested on: KM12; experiment: NCI-60 SRB growth assay; format: cell-based, human
[28] = tested on: HS 578T; experiment: NCI-60 SRB growth assay; format: cell-based, human
[29] = tested on: 786-0; experiment: NCI-60 SRB growth assay; format: cell-based, human
[30] = tested on: CCRF-CEM; experiment: NCI-60 SRB growth assay; format: cell-based, human
[31] = tested on: SW-620; experiment: NCI-60 SRB growth assay; format: cell-based, human
[32] = tested on: HCT-116; experiment: NCI-60 SRB growth assay; format: cell-based, human

CCCCN1CCN(c2ccc3[nH]c(-c4ccc5[nH]c(-c6ccc(OCC)c(OCC)c6)nc5c4)nc3c2)CC1 [12a, 5-(4-Butylpiperazin-1-yl)-2-(2-(3,4-diethoxyphenyl)-1H-benzo[d]imidazol-5-yl)-1H-benzo[d]imidazole]
GI50 ([1]; Homo sapiens, OVCAR-5): 1.9 µM
CC50 ([1]; Homo sapiens, OVCAR-5, read-out: LC50): 6.08 µM
TGI ([1]; OVCAR-5): 3.40 µM
GI50 ([2]; Homo sapiens, UACC-62): 0.68 µM
CC50 ([2]; Homo sapiens, UACC-62, read-out: LC50): 5.42 µM
TGI ([2]; UACC-62): 2.18 µM
GI50 ([3]; Homo sapiens, Malme-3M): 0.19 µM
TGI ([3]; MALME-3M): 1.18 µM
GI50 ([4]; Homo sapiens, PC-3): 1.08 µM
CC50 ([4]; Homo sapiens, PC-3, read-out: LC50): 5.49 µM
TGI ([4]; PC-3): 2.44 µM
GI50 ([5]; Homo sapiens, RXF 393): 1.01 µM
TGI ([5]; RXF393): 2.35 µM
GI50 ([6]; Homo sapiens, SF-539): 1.26 µM
CC50 ([6]; Homo sapiens, SF-539, read-out: LC50): 5.2 µM
TGI ([6]; SF-539): 2.56 µM
GI50 ([7]; Homo sapiens, U-251): 1.28 µM
CC50 ([7]; Homo sapiens, U-251, read-out: LC50): 5.65 µM
TGI ([7]; U251): 2.69 µM
GI50 ([8]; Homo sapiens, NCI-H23): 0.78 µM
TGI ([8]; NCI–H23): 2.35 µM
TGI ([9]; HCT-15): 3.32 µM
GI50 ([9]; Homo sapiens, HCT-15): 1.56 µM
CC50 ([9]; Homo sapiens, HCT-15, read-out: LC50): 7.05 µM
TGI ([10]; A549/ATCC): 2.93 µM
GI50 ([10]; Homo sapiens, A549): 1.18 µM
GI50 ([11]; Homo sapiens, NCI-H226): 1.29 µM
CC50 ([11]; Homo sapiens, NCI-H226, read-out: LC50): > 100 µM
TGI ([11]; NCI–H226): 3.95 µM
ΔTm ([12]; r = 0.5): 2 °C
Tm ([12]; r = 0.5, oligo 2.5 μM): 56.7 °C
Tm ([12]; r = 1): 57.7 °C
ΔTm ([12]; r = 1): 3 °C
Tm ([12]; r = 1.5): 58.7 °C
ΔTm ([12]; r = 1.5): 4 °C
Tm ([12]; r = 2.0): 61.7 °C
ΔTm ([12]; r = 2.0): 7 °C
GI50 [13]: 0.16 to 3.6 µM
TGI [14]: 3.07 µM
GI50 ([14]; Homo sapiens): 1.55 µM
GI50 ([15]; Homo sapiens, M14): 0.31 µM
CC50 ([15]; Homo sapiens, M14, read-out: LC50): 4.68 µM
TGI ([15]; M14): 1.55 µM
TGI ([16]; A498): 2.47 µM
GI50 ([16]; Homo sapiens, A498): 1.18 µM
CC50 ([16]; Homo sapiens, A498, read-out: LC50): 5.16 µM
IC50 [17]: 2.7 µM
ΔTm ([18]; r = 0.5): 1 °C
Tm ([18]; r = 0.5, oligo 2.5 μM): 57.9 °C
Tm ([18]; r = 1): 58.9 °C
ΔTm ([18]; r = 1): 2 °C
Tm ([18]; r = 1.5): 58.9 °C
ΔTm ([18]; r = 1.5): 2 °C
Tm ([18]; r = 2.0): 59.9 °C
ΔTm ([18]; r = 2.0): 3 °C
TGI [19]: 3.40 µM
GI50 ([19]; Homo sapiens): 1.81 µM
GI50 ([20]; Homo sapiens, NCI-H522): 1.2 µM
CC50 ([20]; Homo sapiens, NCI-H522, read-out: LC50): > 100 µM
TGI ([20]; NCI–H522): 3.97 µM
TGI [21]: 1.62 µM
GI50 ([21]; Homo sapiens): 0.42 µM
GI50 ([22]; Homo sapiens): 1.27 µM
TGI [22]: 3.09 µM
GI50 ([23]; Homo sapiens, OVCAR-3): 0.35 µM
CC50 ([23]; Homo sapiens, OVCAR-3, read-out: LC50): 2.92 µM
TGI ([23]; OVCAR-3): 0.85 µM
TGI [24]: 3.18 µM
GI50 ([24]; Homo sapiens): 1.38 µM
GI50 ([25]; Homo sapiens, MOLT-4): 1.22 µM
CC50 ([25]; Homo sapiens, MOLT-4, read-out: LC50): 31.6 µM
TGI ([25]; MOLT-4): 3.86 µM
TGI ([26]; HCC-2998): 3.22 µM
GI50 ([26]; Homo sapiens, HCC 2998): 1.71 µM
GI50 ([27]; Homo sapiens, KM12): 1.42 µM
CC50 ([27]; Homo sapiens, KM12, read-out: LC50): 6.28 µM
TGI ([27]; KM12): 2.99 µM
TGI ([28]; HS578T): 3.90 µM
GI50 ([28]; Homo sapiens, Hs-578T): 1.54 µM
TGI ([29]; 786–0): 2.84 µM
GI50 ([29]; Homo sapiens, 786-0): 1.41 µM
CC50 ([29]; Homo sapiens, 786-0, read-out: LC50): 5.72 µM
TGI [30]: 3.06 µM
GI50 ([30]; Homo sapiens): 0.53 µM
CC50 ([30]; Homo sapiens, read-out: LC50): > 100 µM
GI50 ([31]; Homo sapiens, SW-620): 0.47 µM
CC50 ([31]; Homo sapiens, SW-620, read-out: LC50): 5.15 µM
TGI ([31]; SW620): 1.79 µM
TGI ([32]; HCT-116): 1.66 µM
GI50 ([32]; Homo sapiens, HCT-116): 0.43 µM
CC50 ([32]; Homo sapiens, HCT-116, read-out: LC50): 4.3 µM
